In patent publication EP0309566B1, “STLV-III-RELATED POLYPEPTIDES, DIAGNOSTIC SYSTEMS AND ASSAY METHODS” (JOHNSON AND JOHNSON, priority 1987, dated 1994):

Columns and labels:
antibodies against HIV-2 = assay: ELISA with STLV-III polypeptides p80 and p81, alone and in combination; assay type: binding, human; conditions: two sera containing high titers of antibodies against HIV-2, diluted 1:10; 490nm
Experimental: Preliminary studies using two sera containing high titers of antibodies against HIV-2 were performed by ELISA using each of p80 and p81 alone and in combination. One hundred microliters (ul) of 0.01M NaHCO₃, pH 9.6, containing 1 microgram (ug) of either p80 or p81 or a combination (admixture) of 1 ug of p80 and 1 ug of p81 were admixed into the wells of Immunolon II microtiter plates (Dynatech, Alexandria, VA). The plates were then maintained for about 16 hours at 4 degrees C to permit the polypeptides to adsorb onto (coat) the walls of the wells. After removing the polypeptide coating solution by shaking, 300 ul of PBS containing 1% bovine serum albumin (BSA), 5mM benzamidine, 10 kilounits Aprotinin, 10ug/ml Trypsin Inhibitor, 10mM EACA, 0.5mM PMSF, 2mM EDTA and 10% glycerol were admixed into each well to block excess protein binding sites. […]
Two hundred ul of OPD substrate were then admixed into each well to form a developing-reaction admixture. After maintaining the developing-reaction admixture for 30 minutes at about 20 degrees C, 50 ul of 4N H₂SO₄ were admixed into each well to stop the developing-reaction, and the resulting solutions were assayed for absorbance at 490nm using a microtiter plate reader.

antibodies to HIV-2 = assay: Specificity ELISA (Example 12, Figure 3), HIV-2 antibody positive sera; assay type: binding, human; conditions: 20 sera containing antibodies to HIV-2 but not to HIV-1 TMP gp41 (West Africans); positive O.D. above 0.150
24 sera = assay: Comparison of peptide p80 based and peptide p81 based ELISA, 24 sera; assay type: binding; conditions: for Ratio p80:p81: absorbance value ratio
Source text: The absorbance values obtained for each of 24 sera in a peptide p80 based ELISA were divided by those obtained in a peptide p81 based ELISA. The resulting absorbance value ratios are shown in ranked order in Table 14.

In the case of AIEKYLEDQAQLNAWCAFRQVC [p80], the absorbance values (antibodies against HIV-2) is reported as “greater than 1.1”, the immunoreaction with sera (antibodies to HIV-2) is reported as “pronounced reactions” and the absorbance value (24 sera; Serum No. 3541) is reported as 0.181. For the same sequence, the “Ratio p80:p81” value (24 sera; Serum No. 3541) was 7.240, the absorbance value (24 sera; Serum No. 3616) was 0.686 and the “Ratio p80:p81” value (24 sera; Serum No. 3616) was 14.600. For the same sequence, the absorbance value (24 sera; Serum No. 3743) was 0.257, the “Ratio p80:p81” value (24 sera; Serum No. 3743) was 6.425 and the absorbance value (24 sera; Serum No. 3923) was 0.180. The “Ratio p80:p81” value (24 sera; Serum No. 3923) was 2.687, the absorbance value (24 sera; Serum No. 3942) was 0.588 and the “Ratio p80:p81” value (24 sera; Serum No. 3942) was 11.530. The absorbance value (24 sera; Serum No. 5160) was 0.251, the “Ratio p80:p81” value (24 sera; Serum No. 5160) was 1.064 and the absorbance value (24 sera; Serum No. 5182) was 0.162. The “Ratio p80:p81” value (24 sera; Serum No. 5182) was 1.588, the absorbance value (24 sera; Serum No. 5727) was 0.504 and the “Ratio p80:p81” value (24 sera; Serum No. 5727) was 0.895. The absorbance value (24 sera; Serum No. 5740) was 2.000, the “Ratio p80:p81” value (24 sera; Serum No. 5740) was 46.510 and the absorbance value (24 sera; Serum No. 6598) was 0.072. The “Ratio p80:p81” value (24 sera; Serum No. 6598) was 0.351, the absorbance value (24 sera; Serum No. 6599) was 0.206 and the “Ratio p80:p81” value (24 sera; Serum No. 6599) was 0.888. The absorbance value (24 sera; Serum No. 6600) was 0.359, the “Ratio p80:p81” value (24 sera; Serum No. 6600) was 1.173 and the absorbance value (24 sera; Serum No. 6601) was 0.353. The “Ratio p80:p81” value (24 sera; Serum No. 6601) was 2.558, the absorbance value (24 sera; Serum No. 6602) was 0.516 and the “Ratio p80:p81” value (24 sera; Serum No. 6602) was 516.000. For the same sequence, the absorbance value (24 sera; Serum No. 6603) was 1.152, the “Ratio p80:p81” value (24 sera; Serum No. 6603) was 2.736 and the absorbance value (24 sera; Serum No. 6604) was 1.808. The “Ratio p80:p81” value (24 sera; Serum No. 6604) was 4.520, the absorbance value (24 sera; Serum No. 6631) was 0.153 and the “Ratio p80:p81” value (24 sera; Serum No. 6631) was 0.537. For the same sequence, the absorbance value (24 sera; Serum No. 6650) was 0.700, the “Ratio p80:p81” value (24 sera; Serum No. 6650) was 20.590 and the absorbance value (24 sera; Serum No. 6661) was 0.647. For the same sequence, the “Ratio p80:p81” value (24 sera; Serum No. 6661) was 4.044, the absorbance value (24 sera; Serum No. 6665) was 0.254 and the “Ratio p80:p81” value (24 sera; Serum No. 6665) was 4.792. For the same sequence, the absorbance value (24 sera; Serum No. 6674) was 2.000, the “Ratio p80:p81” value (24 sera; Serum No. 6674) was 7.752 and the absorbance value (24 sera; Serum No. 6683) was 0.387. The “Ratio p80:p81” value (24 sera; Serum No. 6683) was 0.791, the absorbance value (24 sera; Serum No. 6698) was 2.000 and the “Ratio p80:p81” value (24 sera; Serum No. 6698) was 90.910. For the same sequence, the absorbance value (24 sera; Serum No. 6877) was 0.248 and the “Ratio p80:p81” value (24 sera; Serum No. 6877) was 31.000.
